Patent US20020086061A1 (priority 1999, published 2002)
≈ marks a conversion by molar mass, not a printed value.

What was measured:
[1] = Aqueous solubility of felodipine; type: physicochemical
[2] = pH of excipient and felodipine suspensions before and after heat treatment (Example 11); type: physicochemical
Method: The heat treatment step involved heating the mixture at reflux for 15 minutes and allowing the mixture to stand over night.

aqueous solubility ([1]; all pH levels) | solubility ([1]; aqueous media) [µg/mL] | SMILES | pH ([2]; Heat Treatment (reflux 15 minutes, stand over night)) | Δ pH ([2]; Heat Treatment versus Initial) | pH ([2]; Initial)
about 0.0001% | 0.5 (≈ 1.3 µM) | CCOC(=O)C1=C(C)NC(C)=C(C(=O)OC)C1c1cccc(Cl)c1Cl (racemic) [felodipine] |  |  | 
 |  | O=P([O-])([O-])O.[Ca+2] [Dibasic calcium phosphate (DCP), Dibasic calcium phosphate] | 4.07 | −3.32 | 7.39
